The text below walks through data of ChEMBL document CHEMBL5291721, “A preclinical secondary pharmacology resource illuminates target-adverse drug reaction associations of marketed drugs” (Nat Commun, 2023).

SMILES strings stand for the structures.

The term AC50 denotes the concentration giving half of the maximal activity seen. A lower AC50 goes with greater potency.

Assay [1] has as its target T1, Alpha-1A adrenergic receptor (Homo sapiens, UniProt P35348).
T1 sequence (P35348 whole entry): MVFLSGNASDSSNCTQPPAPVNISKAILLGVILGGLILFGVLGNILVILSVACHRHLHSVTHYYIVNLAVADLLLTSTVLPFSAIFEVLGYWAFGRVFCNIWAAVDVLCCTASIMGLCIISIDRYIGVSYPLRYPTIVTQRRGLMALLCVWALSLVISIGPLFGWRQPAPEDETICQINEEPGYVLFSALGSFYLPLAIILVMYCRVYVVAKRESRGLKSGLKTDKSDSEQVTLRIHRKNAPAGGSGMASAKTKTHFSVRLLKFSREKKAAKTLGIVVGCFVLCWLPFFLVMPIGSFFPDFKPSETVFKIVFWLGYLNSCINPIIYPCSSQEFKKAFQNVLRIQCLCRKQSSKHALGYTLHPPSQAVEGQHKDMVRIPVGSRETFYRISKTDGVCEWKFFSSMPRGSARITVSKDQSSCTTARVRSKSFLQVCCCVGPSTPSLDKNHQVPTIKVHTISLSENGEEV
The format is functional, cell-based.

The target of assay [2] is T2, 5-hydroxytryptamine receptor 1A (Homo sapiens, UniProt P08908).
T2 sequence (P08908 whole entry): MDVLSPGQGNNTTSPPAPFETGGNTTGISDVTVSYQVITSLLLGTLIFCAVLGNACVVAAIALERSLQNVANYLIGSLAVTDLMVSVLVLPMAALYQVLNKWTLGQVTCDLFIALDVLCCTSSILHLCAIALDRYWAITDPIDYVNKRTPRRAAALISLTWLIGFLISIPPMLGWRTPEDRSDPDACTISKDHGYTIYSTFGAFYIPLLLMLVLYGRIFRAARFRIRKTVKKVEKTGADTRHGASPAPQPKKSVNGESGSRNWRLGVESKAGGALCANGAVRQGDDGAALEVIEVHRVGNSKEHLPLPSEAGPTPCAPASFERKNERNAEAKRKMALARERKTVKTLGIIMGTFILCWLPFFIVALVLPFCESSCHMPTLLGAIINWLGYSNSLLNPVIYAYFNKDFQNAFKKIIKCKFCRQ
The format is functional, cell-based.

The next assay concerns the target T3, Progesterone receptor (Homo sapiens, UniProt P06401).
T3 sequence (P06401 whole entry): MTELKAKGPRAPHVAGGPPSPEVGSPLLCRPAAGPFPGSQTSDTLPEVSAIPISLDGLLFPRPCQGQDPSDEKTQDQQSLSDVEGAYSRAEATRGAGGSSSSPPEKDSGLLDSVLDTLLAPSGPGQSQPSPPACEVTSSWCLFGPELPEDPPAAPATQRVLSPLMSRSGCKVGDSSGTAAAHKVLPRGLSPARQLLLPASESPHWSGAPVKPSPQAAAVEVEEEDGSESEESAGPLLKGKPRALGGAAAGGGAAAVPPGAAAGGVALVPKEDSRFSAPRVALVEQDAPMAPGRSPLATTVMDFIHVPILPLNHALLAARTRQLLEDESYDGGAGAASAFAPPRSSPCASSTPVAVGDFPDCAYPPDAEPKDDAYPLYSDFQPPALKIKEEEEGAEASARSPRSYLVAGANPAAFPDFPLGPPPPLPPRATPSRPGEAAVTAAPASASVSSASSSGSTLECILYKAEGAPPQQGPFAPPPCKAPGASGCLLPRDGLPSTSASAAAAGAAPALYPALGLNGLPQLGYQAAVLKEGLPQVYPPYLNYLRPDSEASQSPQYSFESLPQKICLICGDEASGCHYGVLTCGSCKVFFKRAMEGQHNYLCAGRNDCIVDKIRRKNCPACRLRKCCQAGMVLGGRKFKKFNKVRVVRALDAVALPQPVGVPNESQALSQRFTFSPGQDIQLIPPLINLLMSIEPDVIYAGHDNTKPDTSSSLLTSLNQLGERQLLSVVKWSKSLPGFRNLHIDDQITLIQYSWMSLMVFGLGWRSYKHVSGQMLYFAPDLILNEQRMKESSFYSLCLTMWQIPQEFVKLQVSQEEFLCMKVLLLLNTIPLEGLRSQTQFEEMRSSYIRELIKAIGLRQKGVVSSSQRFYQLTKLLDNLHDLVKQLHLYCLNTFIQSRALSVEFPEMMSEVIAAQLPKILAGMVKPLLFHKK
It is filed as functional.

Another assay has as its target T4, Adenosine receptor A3 (Homo sapiens, UniProt P0DMS8).
T4 sequence (P0DMS8 whole entry): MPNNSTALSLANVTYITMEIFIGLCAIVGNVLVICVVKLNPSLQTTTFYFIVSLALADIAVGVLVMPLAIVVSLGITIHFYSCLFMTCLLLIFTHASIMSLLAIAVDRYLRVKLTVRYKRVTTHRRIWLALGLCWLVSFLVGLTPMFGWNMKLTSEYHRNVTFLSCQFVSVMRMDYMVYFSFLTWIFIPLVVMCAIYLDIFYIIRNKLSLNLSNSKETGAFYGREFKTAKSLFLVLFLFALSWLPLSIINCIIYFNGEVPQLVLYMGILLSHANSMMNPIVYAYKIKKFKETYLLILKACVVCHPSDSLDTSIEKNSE

Another assay concerns the target T5, Adenosine receptor A1 (Homo sapiens, UniProt P30542).
T5 sequence (P30542 whole entry): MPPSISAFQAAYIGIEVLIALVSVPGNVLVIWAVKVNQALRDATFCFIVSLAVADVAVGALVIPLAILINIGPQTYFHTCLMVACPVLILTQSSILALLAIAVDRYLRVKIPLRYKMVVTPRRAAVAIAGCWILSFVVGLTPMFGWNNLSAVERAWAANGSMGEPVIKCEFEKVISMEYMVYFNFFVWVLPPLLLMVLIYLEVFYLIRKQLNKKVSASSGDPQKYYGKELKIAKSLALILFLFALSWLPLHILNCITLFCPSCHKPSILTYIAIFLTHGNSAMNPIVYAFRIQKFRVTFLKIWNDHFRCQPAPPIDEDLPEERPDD

Assay [3] has as its target T6, 5-hydroxytryptamine receptor 3A (Homo sapiens, UniProt P46098).
T6 sequence (P46098 whole entry): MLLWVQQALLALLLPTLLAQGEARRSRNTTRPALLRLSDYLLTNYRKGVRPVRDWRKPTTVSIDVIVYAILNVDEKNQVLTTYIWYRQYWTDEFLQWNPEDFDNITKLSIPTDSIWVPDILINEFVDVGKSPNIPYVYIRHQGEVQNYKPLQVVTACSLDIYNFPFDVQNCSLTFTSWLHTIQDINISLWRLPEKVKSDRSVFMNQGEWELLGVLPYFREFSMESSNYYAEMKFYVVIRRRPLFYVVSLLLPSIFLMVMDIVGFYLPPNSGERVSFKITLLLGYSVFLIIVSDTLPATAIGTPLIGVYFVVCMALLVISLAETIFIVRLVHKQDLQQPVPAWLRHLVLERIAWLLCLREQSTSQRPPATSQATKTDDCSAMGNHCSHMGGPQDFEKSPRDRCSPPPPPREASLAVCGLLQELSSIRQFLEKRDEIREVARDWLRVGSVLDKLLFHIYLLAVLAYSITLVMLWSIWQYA
It is filed as functional.
Also: assay procedure not described here.

On to `CC(C)N(CCCCOCC(=O)O)c1cnc(-c2ccccc2)c(-c2ccccc2)n1`, for which the AC50 was above 30 µM in assay [1]; above 30 µM in assay [2]; above 30 µM at Progesterone receptor; 10.1 µM at Adenosine receptor A3; above 30 µM on Adenosine receptor A1; above 30 µM in assay [3].

With `C[N+]12CCC(CC1)C(OC(=O)C(O)(c1ccccc1)c1ccccc1)C2` (configuration not stated), the AC50 (in assay [1]; in assay [2]; at Progesterone receptor; on Adenosine receptor A3; at Adenosine receptor A1; in assay [3]) was above 30 µM in each case.

On to `CC(=O)c1ccc(S(=O)(=O)NC(=O)NC2CCCCC2)cc1` [ACETOHEXAMIDE], for which the AC50 in assay [1] is above 30 µM; in assay [2], above 30 µM; on Progesterone receptor it was above 10 µM; at Adenosine receptor A3 it was above 10 µM; at Adenosine receptor A1, above 10 µM; in assay [3] it was above 30 µM.

For `COc1cc(C)c(/C=C/C(C)=C/C=C/C(C)=C/C(=O)O)c(C)c1C` [ACITRETIN], the AC50 in assay [1] was above 30 µM; in assay [2], above 10 µM; on Progesterone receptor, above 30 µM; on Adenosine receptor A3 it was above 10 µM; at Adenosine receptor A1, above 10 µM; in assay [3], above 30 µM.

Consider `O=C(O)c1ccc(NC(=O)[C@H](Cc2ccc(O)cc2)NC(=O)c2ccccc2)cc1` [BENTIROMIDE], for which the AC50 in assay [2] is above 10 µM; at Progesterone receptor it was above 10 µM; on Adenosine receptor A3, above 10 µM; on Adenosine receptor A1 it was above 10 µM; in assay [3], above 30 µM.

In the case of `NS(=O)(=O)c1cc2c(cc1Cl)N=C(CSCc1ccccc1)NS2(=O)=O` [BENZTHIAZIDE], the AC50 in assay [2] is above 10 µM; on Progesterone receptor it was above 30 µM; on Adenosine receptor A3, above 10 µM; on Adenosine receptor A1 it was above 10 µM; in assay [3], above 10 µM.

`O=C(CCCN1CCC(O)(c2ccc(Br)cc2)CC1)c1ccc(F)cc1` [BROMPERIDOL]: the AC50 (in assay [1]; in assay [2]; on Progesterone receptor; on Adenosine receptor A3; at Adenosine receptor A1; in assay [3]) was above 30 µM each time.

On to `Clc1ccc(CCC(Cn2ccnc2)Sc2c(Cl)cccc2Cl)cc1` (configuration not stated) [BUTOCONAZOLE], for which the AC50 in assay [1] was above 30 µM; in assay [2], above 30 µM; at Progesterone receptor it was 9.1 µM; at Adenosine receptor A3, 16 µM; on Adenosine receptor A1, above 30 µM; in assay [3], above 30 µM.

As for `CO/N=C(\C(=O)N[C@@H]1C(=O)N2C(C(=O)O)=CCS[C@H]12)c1csc(N)n1` [CEFTIZOXIME], the half-maximal activity concentration (AC50) was above 30 µM in assay [1]; above 30 µM in assay [2]; 26 µM on Progesterone receptor; above 30 µM at Adenosine receptor A3; above 30 µM on Adenosine receptor A1.

For the compound `CO/N=C(\C(=O)N[C@@H]1C(=O)N2C(C(=O)O)=C(CSc3nc(=O)c(=O)[nH]n3C)CS[C@H]12)c1csc(N)n1` [CEFTRIAXONE], the AC50 in assay [1] is above 30 µM; in assay [2] it was above 30 µM; at Progesterone receptor, 23 µM; at Adenosine receptor A3 it was above 30 µM; on Adenosine receptor A1 it was above 30 µM; in assay [3], above 30 µM.

Take `CC(C)[C@@H](C)/C=C/[C@@H](C)[C@H]1CC[C@H]2/C(=C/C=C3\C[C@@H](O)CC[C@@H]3C)CCC[C@]12C` [DIHYDROTACHYSTEROL]: the concentration at half-maximal activity (AC50) in assay [2] is above 10 µM; at Progesterone receptor, 11.2 µM; on Adenosine receptor A3 it was above 10 µM; at Adenosine receptor A1, above 10 µM; in assay [3], above 30 µM.

In the case of `CCCC(C)(COC(N)=O)COC(N)=O` [MEPROBAMATE], the AC50 in assay [2] was above 10 µM; on Progesterone receptor, above 10 µM; on Adenosine receptor A3 it was above 10 µM; on Adenosine receptor A1, above 10 µM; in assay [3] it was above 30 µM.

For the compound `O=C(c1cc(Cc2n[nH]c(=O)c3ccccc23)ccc1F)N1CCN(C(=O)C2CC2)CC1` [OLAPARIB], the AC50 in assay [2] was above 10 µM; at Progesterone receptor, above 30 µM; at Adenosine receptor A3, above 30 µM; at Adenosine receptor A1 it was 11.9 µM; in assay [3], above 30 µM.

On to `NC(=O)NC(=O)Cc1ccccc1` [PHENACEMIDE], for which the AC50 is above 10 µM in assay [2]; above 10 µM on Progesterone receptor; above 10 µM at Adenosine receptor A3; above 10 µM at Adenosine receptor A1; above 30 µM in assay [3].

Consider `CCCN(CCC)S(=O)(=O)c1ccc(C(=O)O)cc1` [PROBENECID], for which the AC50 was above 10 µM in assay [2]; above 10 µM on Progesterone receptor; above 10 µM at Adenosine receptor A3; above 10 µM at Adenosine receptor A1; above 30 µM in assay [3].

Turning to `CC1=C(/C=C/C(C)=C/C=C/C(C)=C/CO)C(C)(C)CCC1` [RETINOL], the AC50 in assay [2] was above 10 µM; at Progesterone receptor it was above 30 µM; on Adenosine receptor A3 it was above 10 µM; at Adenosine receptor A1 it was above 10 µM; in assay [3], above 30 µM.

As for `Cc1cc(C)nc(NS(=O)(=O)c2ccc(N)cc2)n1` [SULFAMETHAZINE], the AC50 in assay [2] is above 10 µM; on Progesterone receptor, above 10 µM; at Adenosine receptor A3, above 10 µM; on Adenosine receptor A1, above 10 µM; in assay [3], above 30 µM.

Consider `CCOC(=O)[C@@H](N)Cc1ccc(-c2cc(O[C@H](c3ccc(Cl)cc3-n3ccc(C)n3)C(F)(F)F)nc(N)n2)cc1` [TELOTRISTAT ETHYL], for which the AC50 is above 30 µM in assay [1]; above 30 µM on Progesterone receptor; 3.1 µM at Adenosine receptor A3; above 30 µM on Adenosine receptor A1; 24 µM in assay [3].
